Consider 14 compounds from patent US8609699B2, “Oxotetrahydrofuran-2-yl-benzimidazole derivative” (MSD K.K., priority 2008, dated 2013).

Experiment [1] deals with high-fat diet loaded mice. In words: Antihyperglycemic effect in high-fat diet loaded mice. The class given is in vivo, C57BL/6J mice. To be noted: oral 10 mg/kg in 0.5% methyl cellulose; 1 hour after administration; free-feeding mice. The protocol: Six-week-old male C57BL/6J mice were fed a high-fat diet (RESEARCH DIETS, D12492) for ≧9 weeks to produce the high-fat diet loaded mice (>160 mg/dl).
The slight tail tips of the high-fat diet loaded mice (18-21 weeks old, n=6) under the conditions of free-feeding and water intake were cut with scissors to collect their blood. The collected blood was used to determine blood glucose levels prior to the administration of a compound by a blood glucose level measuring apparatus (One Touch Ultra (Johnson. Johnson)), followed by oral administration of the compound suspended in a 0.5% methyl cellulose solution at 10 mg/kg, while a 0.5% methyl cellulose solution was orally administered to the control group. The blood glucose levels were determined using the blood glucose level measuring apparatus every 1 hour after the administration of the test drug solutions.
The values of the decreases in blood glucose (differences between the control group and the compound-treated group) at 1 hour after administration were shown in Table 7 described below.
The values of the decreases in blood glucose (differences between the control group and the compound-treated group) at 1 hour after administration of the compounds according to Example 1 and Example 7 were shown in Table 7 described below.

In experiment [2] the test system is male beagles. Briefly: Antihyperglycemic effect in fasted beagles (plasma glucose AUC). To be noted: compared to control group up to 4 hours after administration, fasted overnight. The class given is in vivo. Here is the method: From the cephalic vein of male beagles fasted overnight (9.4-14.4 kg body weight), blood was collected prior to administration, followed by oral administration of the test drug suspended in a 0.5% methyl cellulose solution (0.3 and 1 mg/kg), while a 0.5% methyl cellulose solution was orally administered to the control group. The blood was collected at 0.5, 1, 2, and 4 hours after the administration of the test drug. Plasma was separated from the obtained blood to determine a plasma glucose level using Determina-GL-E (Kyowa Medics).

Experiment [3] deals with T1, recombinant human liver GK (Homo sapiens, UniProt P35557).
T1 construct: made in house; host or cells: E. coli
T1 sequence (P35557 1-466 isoform P35557-2): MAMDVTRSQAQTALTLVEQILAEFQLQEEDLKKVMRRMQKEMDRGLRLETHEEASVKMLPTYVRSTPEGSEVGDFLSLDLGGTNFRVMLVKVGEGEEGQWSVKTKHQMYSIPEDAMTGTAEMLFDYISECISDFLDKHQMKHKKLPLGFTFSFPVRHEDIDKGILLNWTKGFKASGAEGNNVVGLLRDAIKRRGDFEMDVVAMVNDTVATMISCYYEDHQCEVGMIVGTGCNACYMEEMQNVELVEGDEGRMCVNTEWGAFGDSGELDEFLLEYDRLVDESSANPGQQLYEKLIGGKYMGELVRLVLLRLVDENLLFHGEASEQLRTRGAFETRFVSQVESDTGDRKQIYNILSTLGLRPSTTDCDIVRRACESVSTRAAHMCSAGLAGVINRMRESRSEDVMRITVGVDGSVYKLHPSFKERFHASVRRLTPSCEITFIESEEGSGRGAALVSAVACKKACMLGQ
Briefly: Glucokinase-activating effect (Thio-NADH, G6PDH-coupled assay). To be noted: final glucose 2.5 mM, 30° C; for Emax(%): OD level of DMSO control = 100%. The class given is biochemical. From the text: The excellent glucokinase-activating effect of the compounds of formula (I) may be determined by a method described in literature (for example, Diabetes, Vol. 45, pp. 1671-1677, 1996), or in accordance with it.
The glucokinase activity may be determined not by directly measuring glucose-6-phosphate but by measuring the level of Thio-NADH, which is produced when a reporter enzyme, glucose-6-phosphate dehydrogenase produces phosphogluconolactone from glucose-6-phosphate, and based on the level, the degree of glucokinase activation by the compound tested may be determined.
In this assay, used was a recombinant human liver GK, which was expressed by E. coli as a FLAG fusion protein therein and was purified by ANTIFLAG M2 AFFINITY GEL (Sigma).
Using a flat-bottomed 96-well plate, the assay was carried out at 30° C. 69 μl of an assay buffer (25 mM Hepes Buffer/pH=7.2, 2 mM MgCl2, 1 mM ATP, 0.5 mM TNAD, 1 mM dithiothreitol) was put into the plate, and 1 μl of a DMSO solution of the compound or DMSO alone as a control was added thereto. Next, 20 μl of an enzyme mixture (FLAG-GK, 20 U/ml G6PDH) cooled in ice was added to it, and 10 μl of a substrate, 25 mM glucose was added to it, and the reaction was initiated (final glucose concentration=2.5 mM).
After the start of the reaction, the increase in the absorbance at 405 nm was measured for 12 minutes at intervals of 30 seconds, and the increase for the first 5 minutes was used for assessing the compound tested. FLAG-GK was added so that the absorbance increase after 5 minutes in the presence of 1% DMSO could be from 0.04 to 0.06.
The OD level of the DMSO control was set as 100%; and the OD level of the test compound at different concentrations was determined. From the OD level at each concentration, Emax (%) and EC50 (μM) were computed and used as the index of the GK-activating potency of the compound.
The GK activating effect of the compounds of the invention was measured according to the method as above, and the results are shown in Table 5 below.

Where [4] appears, read: racemates, comparison with WO2007/007910.

A word on the EC50: it is the concentration giving half of the maximal effect. Regarding `O=C1CCC(c2cc3[nH]c(-c4ccccn4)nc3cc2Oc2ccc(C(=O)N3CCC3)cc2)O1` (single isomer, unassigned) [Example 1 B, 5-{5-[4-(azetidin-1-ylcarbonyl)phenoxy]-2-pyridin-2-yl-1H-benzimidazol-6-yl}dihydrofuran-2(3H)-one], the “Difference from control group (Δmg/dl), decrease in blood glucose” value in experiment [1] is recorded as −132 Δmg/dl. The “Rate of decrease (%) in plasma glucose level AUC” value in experiment [2] (oral 0.3 mg/kg) turned out to be 16.2%; in experiment [2] (oral 1.0 mg/kg), 23.4%. In addition, the “Emax(%)” value in experiment [3] (separated enantiomers, listed as 1 B) came out at 588%. Also, in experiment [3] (separated enantiomers), the EC50 was 240 nM.

As to `COCc1ccc(Oc2cc3nc(-c4ccccn4)[nH]c3cc2C2CCC(=O)O2)cn1` (racemic) [Example 11 Racemate, 5-(5-{[6-(methoxymethyl)pyridin-3-yl]oxy}-2-pyridin-2-yl-1H-benzimidazol-6-yl)dihydrofuran-2(3H)-one], the EC50 in experiment [3] (setting [4]) stood at 490 nM.

On to `CN(C)C(=O)c1ccc(Oc2cc3nc(-c4ccccn4)[nH]c3cc2C2CCC(=O)O2)cn1` (single isomer, unassigned) [Example 4 A, N,N-dimethyl-5-{[6-(5-oxotetrahydrofuran-2-yl)-2-pyridin-2-yl-1H-benzimidazol-5-yl]oxy}pyridine-2-carboxamide], for which the “Emax(%)” value in experiment [3] (separated enantiomers, listed as 4 A) is listed as 432%. The EC50 in experiment [3] (separated enantiomers) was determined as 15900 nM.

In the case of `CN(C)C(=O)Cc1ccc(Oc2cc3nc(-c4ccccn4)[nH]c3cc2C2CCC(=O)O2)cc1` (single isomer, unassigned) [Example 7 A, N,N-dimethyl-2-(4-{[6-(5-oxotetrahydrofuran-2-yl)-2-pyridin-2-yl-1H-benzimidazol-5-yl]oxy}phenyl)acetamide], in experiment [3] (separated enantiomers, listed as 7 A), the “Emax(%)” value was determined as 775%. In addition, the EC50 in experiment [3] (separated enantiomers) was 2470 nM.

Regarding `CCNC(=O)c1ccc(Oc2cc3nc(-c4ccccn4)[nH]c3cc2C2CCC(=O)O2)cn1` (single isomer, unassigned) [Example 6 B, N-ethyl-5-{[6-(5-oxotetrahydrofuran-2-yl)-2-pyridin-2-yl-1H-benzimidazol-5-yl]oxy}pyridine-2-carboxamide], the “Emax(%)” value in experiment [3] (separated enantiomers, listed as 6 B) worked out at 781%. Also, the concentration for a half-maximal effect (EC50) in experiment [3] (separated enantiomers) was determined as 240 nM.

For the compound `COCc1ccc(Oc2cc3nc(-c4ccccn4)[nH]c3cc2C2CCC(=O)O2)cn1` (single isomer, unassigned) [Example 11 A, 5-(5-{[6-(methoxymethyl)pyridin-3-yl]oxy}-2-pyridin-2-yl-1H-benzimidazol-6-yl)dihydrofuran-2(3H)-one], in experiment [3] (separated enantiomers, listed as 11 A), the “Emax(%)” value was 412%. The EC50 in experiment [3] (separated enantiomers) worked out at 16600 nM.

As to `O=C1CCC(c2cc3[nH]c(-c4ccccn4)nc3cc2Oc2ccc(C(=O)N3CCC3)nc2)O1` (single isomer, unassigned) [Example 2 A, 5-(5-{[6-(azetidin-1-ylcarbonyl)pyridin-3-yl)oxy}-2-pyridin-2-yl-1H-benzimidazol-6-yl)dihydrofuran-2(3H)-one], in experiment [3] (separated enantiomers, listed as 2 A), the “Emax(%)” value was 476%. Further, in experiment [3] (separated enantiomers), the EC50 turned out to be 15100 nM.

As to `O=C1CCC(c2cc3[nH]c(-c4ccccn4)nc3cc2Oc2ccc(C(=O)N3CCC3)cc2)O1` (racemic) [Example 1 Racemate, 5-{5-[4-(azetidin-1-ylcarbonyl)phenoxy]-2-pyridin-2-yl-1H-benzimidazol-6-yl}dihydrofuran-2(3H)-one], the EC50 in experiment [3] (setting [4]) stood at 530 nM.

`CCNC(=O)c1ccc(Oc2cc3nc(-c4ccccn4)[nH]c3cc2C2CCC(=O)O2)cn1` (single isomer, unassigned) [Example 6 A, N-ethyl-5-{[6-(5-oxotetrahydrofuran-2-yl)-2-pyridin-2-yl-1H-benzimidazol-5-yl]oxy}pyridine-2-carboxamide]: the “Emax(%)” value in experiment [3] (separated enantiomers, listed as 6 A) is on record as 553%. Also, the EC50 in experiment [3] (separated enantiomers) was found to be 1830 nM.

Regarding `O=C1CCC(c2cc3[nH]c(-c4ccccn4)nc3cc2Oc2ccc(C(=O)N3CCC3)nc2)O1` (single isomer, unassigned) [Example 2 B, 5-(5-{[6-(azetidin-1-ylcarbonyl)pyridin-3-yl)oxy}-2-pyridin-2-yl-1H-benzimidazol-6-yl)dihydrofuran-2(3H)-one], the “Emax(%)” value in experiment [3] (separated enantiomers, listed as 2 B) is listed as 704%. The EC50 in experiment [3] (separated enantiomers) came out at 310 nM.

As to `CN(C)C(=O)Cc1ccc(Oc2cc3nc(-c4ccccn4)[nH]c3cc2C2CCC(=O)O2)cc1` (racemic) [Example 7 Racemate, N,N-dimethyl-2-(4-{[6-(5-oxotetrahydrofuran-2-yl)-2-pyridin-2-yl-1H-benzimidazol-5-yl]oxy}phenyl)acetamide], the half-maximal effective concentration (EC50) in experiment [3] (setting [4]) stood at 470 nM.

With `COCc1ccc(Oc2cc3nc(-c4ccccn4)[nH]c3cc2C2CCC(=O)O2)cn1` (single isomer, unassigned) [Example 11 B, 5-(5-{[6-(methoxymethyl)pyridin-3-yl]oxy}-2-pyridin-2-yl-1H-benzimidazol-6-yl)dihydrofuran-2(3H)-one], the “Emax(%)” value in experiment [3] (separated enantiomers, listed as 11 B) came out at 788%. Further, the EC50 in experiment [3] (separated enantiomers) is 270 nM.

As for `O=C1CCC(c2cc3[nH]c(-c4ccccn4)nc3cc2Oc2ccc(C(=O)N3CCC3)cc2)O1` (single isomer, unassigned) [Example 1 A, 5-{5-[4-(azetidin-1-ylcarbonyl)phenoxy]-2-pyridin-2-yl-1H-benzimidazol-6-yl}dihydrofuran-2(3H)-one], in experiment [3] (separated enantiomers, listed as 1 A), the “Emax(%)” value turned out to be 541%. Moreover, the EC50 in experiment [3] (separated enantiomers) stood at 1910 nM.

On to `CN(C)C(=O)c1ccc(Oc2cc3nc(-c4ccccn4)[nH]c3cc2C2CCC(=O)O2)cn1` (single isomer, unassigned) [Example 4 B, N,N-dimethyl-5-{[6-(5-oxotetrahydrofuran-2-yl)-2-pyridin-2-yl-1H-benzimidazol-5-yl]oxy}pyridine-2-carboxamide], for which the “Emax(%)” value in experiment [3] (separated enantiomers, listed as 4 B) was 668%. For the same compound, the EC50 in experiment [3] (separated enantiomers) was 280 nM.
